The source of these data is ChEMBL document CHEMBL1155287, “Discovery of a small molecule inhibitor through interference with the gp120-CD4 interaction” (Bioorg Med Chem Lett, 2009).

The nature of data set [1]: Cytotoxicity against human HeLaP4 cells. In kind it is cell-based.
The nature of data set [2]: Lipophilicity, log D at pH 7.4. The settings on record: buffer. Type of data set: physicochemical.
Data set [3] is described as follows: Inhibition of HIV1 JRFL gp120-mediated CHO cells fusion to HeLaP4 cells by HIV LTR-beta galactosidase reporter assay. Type of data set: cell-based. Particulars: Human immunodeficiency virus 1, JRFL. (In a reporter assay the amount or activity of a reporter protein is the signal.)
Data set [4] in a line: in vitro. The settings on record: human, liver microsomes. On the technique in general: Microsomes from liver hold many membrane-bound enzymes, among them those of drug oxidation.
The nature of data set [5]: Bioavailability in rat at 1 mg/kg. Type of data set: ADME, organism-based. Particulars: in vivo.
The test system of data set [6] is Human immunodeficiency virus 1. Briefly: Antiviral activity against Human immunodeficiency virus 1 BR92023 infected human PBMC cells by Phenosense assay. Type of data set: functional, organism-based. The settings on record: Human immunodeficiency virus 1, BR92023, PBMC.
Data set [7] can be described thus: Volume of distribution in rat at 1 mg/kg, iv and 1 mg/kg, po. Type of data set: ADME, organism-based. Particulars: in vivo.
The subject of data set [8] is Human immunodeficiency virus 1. Briefly: Antiviral activity against Human immunodeficiency virus 1 NL4-3 assessed as inhibition of viral entry in HeLaP4 cells after 5 days by beta galactosidase reporter assay. Type of data set: functional, organism-based. The settings on record: Human immunodeficiency virus 1, NL4-3, HeLaP4, 120 h.
The nature of data set [9]: Half life in rat at 1 mg/kg, iv and 1 mg/kg, po. Type of data set: ADME, organism-based. The settings on record: in vivo.
Data set [10] in a line: in vitro. The settings on record: rat, liver microsomes.
Data set [11] is described as follows: Plasma protein binding in rat at 1 mg/kg, iv and 1 mg/kg, po. In kind it is ADME, organism-based. Particulars: read-out: PPB (converted).
Data set [12] concerns Human immunodeficiency virus 1. Kind of data set: Antiviral activity against Human immunodeficiency virus 1 BR92004 infected human PBMC cells by Phenosense assay. The settings on record: Human immunodeficiency virus 1, BR92004, PBMC. In kind it is functional, organism-based.
The subject of data set [13] is Human immunodeficiency virus 1. Briefly: Antiviral activity against Human immunodeficiency virus 1 3B infected human PBMC cells by Phenosense assay. In kind it is functional, organism-based.
Data set [14] concerns Human immunodeficiency virus 1. Briefly: Antiviral activity against Human immunodeficiency virus 1 BaL infected human PBMC cells by Phenosense assay. Type of data set: functional, organism-based.
A short description of data set [15]: Clearance in rat at 1 mg/kg, iv and 1 mg/kg, po. In kind it is ADME, organism-based. The settings on record: in vivo.

For orientation: CC50 means the concentration giving 50% cytotoxicity. Low readings indicate harm at low concentration, high ones better tolerance by the cells. For orientation: logD means the decadic logarithm of the distribution of all forms, ionised or not, between an organic phase and buffer at a given pH. High values mean higher lipophilicity, low ones lower lipophilicity. As usually defined, the IC50 is the concentration that inhibits the measured activity by half. As a reminder, the microsomal CLint is the rate of metabolic loss divided by the concentration. Usually bioavailability stands for dose-corrected exposure relative to a reference, in per cent. Read a high bioavailability as much systemic uptake. As usually defined, the half-life is how long it takes for the measured level to halve. Low values mean fast loss, high ones slow loss.

`CNC(=O)c1ccc(OC(C)C(=O)N2CCN(C(=O)c3ccccc3)C[C@H]2C)cc1` (mixture of isomers) displayed a cytotoxic concentration (CC50) in data set [1] of more than 10000 nM. In [2], this molecule had a logD of 1.1. Further, in data set [3], inhibition was half-maximal at 2600 nM (IC50). In the data set “in vitro [4]”, this molecule gave a microsomal CLint of less than 8 µL/min/mg.
Take `Cc1ccc(OC(C)C(=O)N2CCN(C(=O)c3ccccc3)C[C@H]2C)cc1C` (mixture of isomers): the CC50 in [1] was more than 10000 nM. The molecule also yielded an IC50 in data set [3] of 100 nM. Besides, the intrinsic metabolic clearance (microsomal CLint) in the data set “in vitro [4]” came out at 158 µL/min/mg.
In data set [1], `CC(Oc1ccc(C(=O)N(C)C)cc1)C(=O)N1CCN(C(=O)c2ccccc2)C[C@H]1C` (mixture of isomers) had a CC50 of more than 10000 nM. The same molecule showed a logD in data set [2] of 0.9. In data set [3], this molecule showed an IC50 of more than 25000 nM. This molecule also gave a microsomal CLint in the data set “in vitro [4]” of less than 8 µL/min/mg.
Turning to `CCOc1cc(C(=O)NC)ccc1OC(C)C(=O)N1CCN(C(=O)c2ccccc2)C[C@H]1C` (mixture of isomers), in [1], the CC50 was more than 10000 nM. For the same molecule, the IC50 in data set [3] is more than 2000 nM.
The corresponding values for `CNC(=O)c1ccc(OC(C)C(=O)N2CCN(C(=O)c3ccccc3)C[C@H]2C)cc1OC` (mixture of isomers) are more than 10000 nM and 2700 nM.
`CNC(=O)c1ccc(OC(C)C(=O)N2CCN(C(=O)c3ccccc3)C[C@H]2C)c(C)c1` (mixture of isomers) returned a CC50 in data set [1] of more than 10000 nM. The same molecule returned a logD in data set [2] of 1.8. The same molecule gave an IC50 in [3] of 2900 nM. The microsomal CLint in the data set “in vitro [4]” was less than 8 µL/min/mg.
The molecule `CNC(=O)c1cccc(OC(C)C(=O)N2CCN(C(=O)c3ccccc3)C[C@H]2C)c1` (mixture of isomers) registered a CC50 in data set [1] of more than 10000 nM. The molecule also returned a pH-dependent lipophilicity (logD) in data set [2] of 1.3. The molecule further showed an IC50 in data set [3] of 1400 nM. The molecule also came in with a microsomal CLint in “in vitro [4]” of less than 8 µL/min/mg.
`CC(Oc1cccc(-c2ccn[nH]2)c1)C(=O)N1CCN(C(=O)c2ccccc2)C[C@H]1C` (mixture of isomers) gave a CC50 in data set [1] of more than 10000 nM. In data set [2], this molecule showed a logD of 2.3. Moreover, the IC50 in data set [3] stood at 35 nM. Further, the microsomal CLint in “in vitro [4]” was 61 µL/min/mg.
Molecule `CNC(=O)c1ccc(OC(C)C(=O)N2CCN(C(=O)c3ccccc3)C[C@H]2C)cc1C` (mixture of isomers) returned a CC50 in [1] of more than 10000 nM. This molecule returned a logD in data set [2] of 1.1. In data set [3], the IC50 came out at 1000 nM. Moreover, in “in vitro [4]”, the microsomal CLint was less than 8 µL/min/mg.
As for `CC(Oc1ccccc1C(=O)N(C)C)C(=O)N1CCN(C(=O)c2ccccc2)C[C@H]1C` (mixture of isomers), in data set [1], the CC50 is more than 10000 nM. In data set [2], this molecule returned a logD of 1.1. The molecule also registered an IC50 in [3] of more than 25000 nM. Moreover, in the data set “in vitro [4]”, the microsomal CLint worked out at 31 µL/min/mg.
`CNC(=O)c1ccc(OC(C)C(=O)N2CCN(C(=O)c3ccccc3)C[C@H]2C)c(F)c1` (mixture of isomers) came in with a CC50 in data set [1] of more than 10000 nM. The same molecule showed a log distribution coefficient (logD) in data set [2] of 1.4. Further, in [3], the IC50 is 2000 nM. Moreover, in “in vitro [4]”, the microsomal CLint is less than 8 µL/min/mg.
Taken in the same sequence, the figures for `CC(Oc1cccc(C(=O)N(C)C)c1)C(=O)N1CCN(C(=O)c2ccccc2)C[C@H]1C` (mixture of isomers) were more than 10000 nM, 1, more than 25000 nM and 12 µL/min/mg.
The molecule `CNC(=O)c1cccc(OC(C)C(=O)N2CCN(C(=O)c3ccccc3)C[C@H]2C)c1C` (mixture of isomers) gave a half-maximal cytotoxic concentration (CC50) in data set [1] of more than 10000 nM. Further, the logD in [2] worked out at 1.2. In data set [3], the IC50 was found to be 12000 nM. In addition, in the data set “in vitro [4]”, the microsomal CLint was less than 8 µL/min/mg.
In data set [1], `CNC(=O)c1ccccc1OC(C)C(=O)N1CCN(C(=O)c2ccccc2)C[C@H]1C` (mixture of isomers) gave a CC50 of more than 10000 nM. The same molecule returned a log distribution coefficient (logD) in data set [2] of 1.5. This molecule also had a half-maximal inhibitory concentration (IC50) in data set [3] of more than 25000 nM. Moreover, the intrinsic clearance (microsomal CLint) in the data set “in vitro [4]” was determined as 23 µL/min/mg.
Take `Cc1c(OC(C)C(=O)N2CCN(C(=O)c3ccccc3)C[C@H]2C)cccc1-c1ncno1` (mixture of isomers): in data set [1], the CC50 was more than 10000 nM. Also, the logD in data set [2] is 2.1. The molecule also displayed an IC50 in [3] of 75 nM. Further, in “in vitro [4]”, the microsomal CLint turned out to be 141 µL/min/mg.
Consider `CC(Oc1cccc(Cl)c1)C(=O)N1CCN(C(=O)c2ccccc2)C[C@H]1C` (stereo not given in full), for which the CC50 in data set [1] is more than 10000 nM. The same molecule gave an IC50 in [3] of 1000 nM.
For the molecule `CNC(=O)c1cccc(OC(C)C(=O)N2CCN(C(=O)c3ccccc3)C[C@H]2C)c1OC` (mixture of isomers), the CC50 in [1] is more than 10000 nM. Also, the logD in data set [2] was 1. In addition, the IC50 in [3] is more than 10000 nM. Also, in the data set “in vitro [4]”, the intrinsic clearance (microsomal CLint) is less than 8 µL/min/mg.
In the case of `CNC(=O)c1ccc(O[C@H](C)C(=O)N2CCN(C(=O)c3ccccc3)C[C@H]2C)c(OC)c1`, the half-maximal cytotoxic concentration (CC50) in data set [1] is more than 10000 nM. In data set [3], this molecule gave a half-maximal inhibitory concentration (IC50) of more than 2000 nM.
Taken in the same sequence, the figures for `CNC(=O)c1ccc(O[C@@H](C)C(=O)N2CCN(C(=O)c3ccccc3)C[C@H]2C)c(OC)n1` (mixture of isomers) were more than 10000 nM and 257 nM.
`CNC(=O)c1cc(OC)c(O[C@@H](C)C(=O)N2CCN(C(=O)c3ccccc3)C[C@H]2C)cn1` (mixture of isomers) returned a CC50 in data set [1] of more than 10000 nM. In data set [2], this molecule had a logD of 0.7. In addition, the half-inhibitory concentration (IC50) stood at 11 nM in data set [3]; 0.6 nM in data set [6]; 2 nM in [8]; 6 nM in [12]; 10 nM in [13]; 25 nM in [14]. In data set [5], this molecule had a bioavailability of 65%. The Vd in data set [7] turned out to be 1.5 L/kg. The molecule further came in with a microsomal CLint in the data set “in vitro [4]” of less than 8 µL/min/mg. In addition, the half-life in data set [9] is 1 h; in “in vitro [10]”, more than 2 h. Moreover, in [11], the fraction unbound was 0.69.
`CNC(=O)c1ccc(O[C@@H](C)C(=O)N2CCN(C(=O)c3ccccc3)C[C@H]2C)c(OC)c1` returned a half-maximal cytotoxic concentration (CC50) in [1] of more than 10000 nM. The same molecule registered a logD in [2] of 1. In data set [15], this molecule registered a clearance of 75 mL/min/kg. The IC50 is 17 nM in data set [3] and 3 nM in data set [8]. In addition, in [5], the bioavailability was 48%. Besides, the Vd in data set [7] is 4.3 L/kg. In “in vitro [4]”, this molecule displayed a microsomal CLint of less than 8 µL/min/mg. In addition, the half-life is 0.7 h in data set [9] and more than 2 h in the data set “in vitro [10]”. Also, the fraction unbound in [11] is 0.81.
